# What was measured:
# GSPT1 = GSPT1 (Homo sapiens (Human), UniProt P15170+Q96SW2); experiment: Western blot, substrate protein expression in hPBMC: GSPT1; assay type: cell-based; settings: hPBMC, compound 500 nM, 24 hours, Western blot
# How it was run: (§1)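 hPBMC, 1×10^6 cells/mL, 24 h compound exposure; RIPA lysis, BCA protein assay, SDS-PAGE, NC membrane immunoblot. Densitometry vs internal control → % protein remaining; degradation % = 100% − remaining; DC50 = conc. at 50% of DMSO band signal.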
# [1] = target: human Cereblon WT GST-tagged protein (Homo sapiens (Human), UniProt Q96SW2); experiment: CRBN-binding affinity, HTRF (CEREBLON BINDING kit, CISBIO); settings: HTRF inhibitory activity
# How it was run: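 HTRF competition format: test compound displaces Thalidomide-Red from GST-tagged human Cereblon WT, detected with a Eu-labelled anti-GST antibody. Percent CRBN binding inhibition was derived from the 620 nm signal, normalized to solvent-control and protein-free blank wells.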
# IKZF3 = IKZF3 (Homo sapiens (Human), UniProt Q96SW2+Q9UKT9); experiment: Western blot, substrate protein expression in hPBMC: IKZF3; assay type: cell-based; settings: hPBMC, compound 500 nM, 24 hours, Western blot
# How it was run: as §1
# IKZF1 = IKZF1 (Homo sapiens (Human), UniProt Q13422+Q96SW2); experiment: Western blot, substrate protein expression in hPBMC: IKZF1; assay type: cell-based; settings: hPBMC, compound 500 nM, 24 hours, Western blot
# How it was run: as §1
# Chain of IKZF1 (Q13422 whole entry): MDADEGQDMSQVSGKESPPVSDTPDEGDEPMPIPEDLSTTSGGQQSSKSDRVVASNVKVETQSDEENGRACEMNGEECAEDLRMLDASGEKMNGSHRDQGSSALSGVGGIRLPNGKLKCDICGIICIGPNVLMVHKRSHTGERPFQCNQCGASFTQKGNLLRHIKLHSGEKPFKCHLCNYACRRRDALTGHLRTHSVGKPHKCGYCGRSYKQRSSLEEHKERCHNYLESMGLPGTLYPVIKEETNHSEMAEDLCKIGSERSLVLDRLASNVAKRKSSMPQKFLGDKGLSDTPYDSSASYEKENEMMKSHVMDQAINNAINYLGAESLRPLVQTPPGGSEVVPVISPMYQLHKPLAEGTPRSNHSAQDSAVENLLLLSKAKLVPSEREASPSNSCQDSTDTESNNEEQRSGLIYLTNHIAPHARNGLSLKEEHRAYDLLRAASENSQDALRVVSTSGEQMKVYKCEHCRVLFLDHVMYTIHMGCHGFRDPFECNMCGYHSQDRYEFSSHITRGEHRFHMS
# Chain of IKZF1 (Q96SW2 whole entry): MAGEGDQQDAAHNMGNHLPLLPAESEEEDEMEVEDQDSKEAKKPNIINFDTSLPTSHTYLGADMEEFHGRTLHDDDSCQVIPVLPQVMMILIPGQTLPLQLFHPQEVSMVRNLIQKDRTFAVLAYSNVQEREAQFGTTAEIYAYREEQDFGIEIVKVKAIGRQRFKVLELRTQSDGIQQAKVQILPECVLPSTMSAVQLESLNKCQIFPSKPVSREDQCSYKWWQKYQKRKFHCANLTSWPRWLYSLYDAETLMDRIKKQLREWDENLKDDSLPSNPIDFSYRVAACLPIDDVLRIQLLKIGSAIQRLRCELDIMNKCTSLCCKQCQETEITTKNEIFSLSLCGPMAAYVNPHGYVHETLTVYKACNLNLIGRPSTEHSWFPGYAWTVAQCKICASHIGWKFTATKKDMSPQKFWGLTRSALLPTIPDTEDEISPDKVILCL
# Chain of IKZF1 (Q16531 whole entry partner): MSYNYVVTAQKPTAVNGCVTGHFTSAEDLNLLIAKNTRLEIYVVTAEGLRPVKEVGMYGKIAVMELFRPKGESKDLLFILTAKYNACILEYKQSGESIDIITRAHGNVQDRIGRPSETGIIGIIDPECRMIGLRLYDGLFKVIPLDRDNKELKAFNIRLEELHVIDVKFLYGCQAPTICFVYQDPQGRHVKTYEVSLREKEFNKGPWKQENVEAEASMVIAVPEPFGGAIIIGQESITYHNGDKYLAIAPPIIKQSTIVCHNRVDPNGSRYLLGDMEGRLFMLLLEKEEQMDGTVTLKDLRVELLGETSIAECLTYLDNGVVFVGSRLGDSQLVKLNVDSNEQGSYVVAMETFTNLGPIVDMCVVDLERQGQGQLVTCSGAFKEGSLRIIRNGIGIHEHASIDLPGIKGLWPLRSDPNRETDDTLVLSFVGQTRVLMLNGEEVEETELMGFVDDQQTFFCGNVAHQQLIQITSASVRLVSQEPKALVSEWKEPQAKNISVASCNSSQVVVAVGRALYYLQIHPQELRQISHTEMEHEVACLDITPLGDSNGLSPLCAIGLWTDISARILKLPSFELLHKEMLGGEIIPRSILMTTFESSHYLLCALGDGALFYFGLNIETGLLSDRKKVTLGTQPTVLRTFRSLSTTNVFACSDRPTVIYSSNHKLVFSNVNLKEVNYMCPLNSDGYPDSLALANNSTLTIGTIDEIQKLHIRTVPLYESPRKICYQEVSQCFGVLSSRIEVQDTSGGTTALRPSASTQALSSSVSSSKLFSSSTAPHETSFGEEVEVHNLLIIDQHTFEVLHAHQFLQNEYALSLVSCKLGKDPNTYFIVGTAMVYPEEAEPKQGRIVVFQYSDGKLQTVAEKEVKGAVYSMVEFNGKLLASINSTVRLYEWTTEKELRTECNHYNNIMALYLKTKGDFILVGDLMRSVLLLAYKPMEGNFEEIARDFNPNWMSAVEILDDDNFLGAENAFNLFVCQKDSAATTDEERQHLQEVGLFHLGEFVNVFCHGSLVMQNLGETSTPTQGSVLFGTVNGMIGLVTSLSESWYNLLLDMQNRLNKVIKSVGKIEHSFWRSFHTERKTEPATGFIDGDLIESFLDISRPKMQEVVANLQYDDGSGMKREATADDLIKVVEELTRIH
# Chain of human Cereblon WT GST-tagged protein (Q96SW2 whole entry): as the sequence (Q96SW2 whole entry) above
# Chain of IKZF3 (Q9UKT9 whole entry): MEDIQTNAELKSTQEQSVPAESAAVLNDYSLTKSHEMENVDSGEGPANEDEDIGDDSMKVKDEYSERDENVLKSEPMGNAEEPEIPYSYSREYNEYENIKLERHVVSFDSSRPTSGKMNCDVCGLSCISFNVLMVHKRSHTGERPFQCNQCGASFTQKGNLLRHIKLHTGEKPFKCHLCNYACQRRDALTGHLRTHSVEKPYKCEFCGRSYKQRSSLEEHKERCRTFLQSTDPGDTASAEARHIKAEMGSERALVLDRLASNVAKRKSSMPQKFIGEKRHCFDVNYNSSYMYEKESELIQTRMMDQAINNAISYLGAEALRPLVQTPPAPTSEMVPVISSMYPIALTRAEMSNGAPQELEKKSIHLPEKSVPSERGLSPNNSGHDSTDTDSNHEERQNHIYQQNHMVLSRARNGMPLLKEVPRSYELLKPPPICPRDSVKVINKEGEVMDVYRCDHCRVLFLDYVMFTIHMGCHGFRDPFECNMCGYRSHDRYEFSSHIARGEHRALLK
# Chain of IKZF3 (Q96SW2 whole entry): as the sequence (Q96SW2 whole entry) above
# Chain of IKZF3 (Q16531 whole entry partner): as the sequence (Q16531 whole entry partner) above
# Chain of GSPT1 (P15170 whole entry): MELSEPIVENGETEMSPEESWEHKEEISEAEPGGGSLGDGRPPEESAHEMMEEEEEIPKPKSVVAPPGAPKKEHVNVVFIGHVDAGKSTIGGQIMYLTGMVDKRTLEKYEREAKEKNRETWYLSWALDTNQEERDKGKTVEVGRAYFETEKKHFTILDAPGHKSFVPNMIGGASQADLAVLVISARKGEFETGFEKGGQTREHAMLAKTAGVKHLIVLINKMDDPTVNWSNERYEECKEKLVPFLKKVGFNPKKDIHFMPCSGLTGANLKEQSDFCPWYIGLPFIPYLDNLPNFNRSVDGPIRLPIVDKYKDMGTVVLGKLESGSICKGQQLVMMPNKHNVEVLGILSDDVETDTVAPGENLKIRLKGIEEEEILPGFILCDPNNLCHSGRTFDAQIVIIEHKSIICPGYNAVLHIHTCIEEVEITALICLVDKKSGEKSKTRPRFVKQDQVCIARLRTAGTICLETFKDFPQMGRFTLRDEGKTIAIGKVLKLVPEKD
# Chain of GSPT1 (Q96SW2 whole entry): as the sequence (Q96SW2 whole entry) above
# Chain of GSPT1 (Q16531 whole entry partner): as the sequence (Q16531 whole entry partner) above
IC50 [1],Compound,substrate protein remaining % GSPT1 (GSPT1),substrate protein remaining % IKZF3 (IKZF3),substrate protein remaining % IKZF1 (IKZF1)
< 500 nM,"O=C1CCC(N2Cc3cc(CN4CCN(C(c5ccc(F)cc5)c5ccc(F)cc5)CC4)cc(F)c3C2=O)C(=O)N1 (stereo not shown) [GT-03565, 3-(5-((4-(bis(4-fluorophenyl)methyl)piperazin-1-yl)methyl)-7-fluoro-1-oxoisoindolin-2-yl)piperidine-2,6-dione]",A (A represents 0% ≤ substrate protein remaining % ≤ 50%),B (B represents substrate protein remaining % > 50%),B (B represents substrate protein remaining % > 50%)
1000 to 1900 nM,"O=C1CCC(N2Cc3c(ccc(CN4CCN(C(c5ccc(Cl)cc5)c5ccc(Cl)cc5)CC4)c3F)C2=O)C(=O)N1 (stereo not shown) [GT-03567, 3-(5-((4-(bis(4-chlorophenyl)methyl)piperazin-1-yl)methyl)-4-fluoro-1-oxoisoindolin-2-yl)piperidine-2,6-dione]",A (A represents 0% ≤ substrate protein remaining % ≤ 50%),A (A represents 0% ≤ substrate protein remaining % ≤ 50%),B (B represents substrate protein remaining % > 50%)
< 500 nM,"O=C1CCC(N2Cc3cc(CN4C[C@H]5C[C@@H]4CN5C(c4ccccc4)c4ccccc4)ccc3C2=O)C(=O)N1 (stereo partly drawn) [GT-03570, 3-(5-(((1R,4R)-5-benzhydryl-2,5-diazabicyclo[2.2.1]heptan-2-yl)methyl)-1-oxoisoindolin-2-yl)piperidine-2,6-dione]",A (A represents 0% ≤ substrate protein remaining % ≤ 50%),B (B represents substrate protein remaining % > 50%),B (B represents substrate protein remaining % > 50%)
< 500 nM,"C[C@@H]1CN(C(c2ccccc2)c2ccccc2)CCN1Cc1ccc2c(c1)CN(C1CCC(=O)NC1=O)C2=O (stereo partly drawn) [GT-03571, 3-(5-(((R)-4-benzhydryl-2-methylpiperazin-1-yl)methyl)-1-oxoisoindolin-2-yl)piperidine-2,6-dione]",A (A represents 0% ≤ substrate protein remaining % ≤ 50%),B (B represents substrate protein remaining % > 50%),B (B represents substrate protein remaining % > 50%)
500 to 1000 nM,"C[C@@H]1CN(C(c2ccccc2)c2ccccc2)CCN1Cc1ccc2c(c1F)CN(C1CCC(=O)NC1=O)C2=O (stereo partly drawn) [GT-03574, 3-(5-(((R)-4-benzhydryl-2-methylpiperazin-1-yl)methyl)-4-fluoro-1-oxoisoindolin-2-yl)piperidine-2,6-dione]",A (A represents 0% ≤ substrate protein remaining % ≤ 50%),B (B represents substrate protein remaining % > 50%),B (B represents substrate protein remaining % > 50%)
500 to 1000 nM,"O=C1CCC(N2Cc3c(CN4CCN(C(c5ccc(F)cc5)c5ccc(F)cc5)CC4)cccc3C2=O)C(=O)N1 (stereo not shown) [GT-03647, 3-(4-((4-(bis(4-fluorophenyl)methyl)piperazin-1-yl)methyl)-1-oxoisoindolin-2-yl)piperidine-2,6-dione]",A (A represents 0% ≤ substrate protein remaining % ≤ 50%),B (B represents substrate protein remaining % > 50%),B (B represents substrate protein remaining % > 50%)
< 500 nM,"O=C1CCC(N2Cc3cc(CN4C[C@@H]5C[C@H]4CN5C(c4ccccc4)c4ccccc4)ccc3C2=O)C(=O)N1 (stereo partly drawn) [GT-03721, 3-(5-(((1S,4S)-5-benzhydryl-2,5-diazabicyclo[2.2.1]heptan-2-yl)methyl)-1-oxoisoindolin-2-yl)piperidine-2,6-dione]",A (A represents 0% ≤ substrate protein remaining % ≤ 50%),A (A represents 0% ≤ substrate protein remaining % ≤ 50%),B (B represents substrate protein remaining % > 50%)
500 to 1000 nM,"CC1CN(C(c2ccccc2)c2ccccc2)CC(C)N1Cc1ccc2c(c1)CN(C1CCC(=O)NC1=O)C2=O (stereo not shown) [GT-03723, 3-(5-((4-benzhydryl-2,6-dimethylpiperazin-1-yl)methyl)-1-oxoisoindolin-2-yl)piperidine-2,6-dione]",A (A represents 0% ≤ substrate protein remaining % ≤ 50%),B (B represents substrate protein remaining % > 50%),B (B represents substrate protein remaining % > 50%)
< 500 nM,"CC1CN(C(c2ccccc2)c2ccccc2)CC(C)N1Cc1ccc2c(c1F)CN(C1CCC(=O)NC1=O)C2=O (stereo not shown) [GT-03726, 3-(5-((4-benzhydryl-2,6-dimethylpiperazin-1-yl)methyl)-4-fluoro-1-oxoisoindolin-2-yl)piperidine-2,6-dione]",A (A represents 0% ≤ substrate protein remaining % ≤ 50%),B (B represents substrate protein remaining % > 50%),B (B represents substrate protein remaining % > 50%)
,"O=C1CCC(N2C(=O)c3ccc(CN4CCN(C(c5ccc(OCc6ccccc6)cc5)c5ccc(OCc6ccccc6)cc5)CC4)cc3C2=O)C(=O)N1 (stereo not shown) [GT-06425, 5-((4-(bis(4-(benzyloxy)phenyl)methyl)piperazin-1-yl)methyl)-2-(2,6-dioxopiperidin-3-yl) isoindoline-1,3-dione]",A (A represents 0% ≤ substrate protein remaining % ≤ 50%),A (A represents 0% ≤ substrate protein remaining % ≤ 50%),B (B represents substrate protein remaining % > 50%)
,"O=C1CCC(N2C(=O)c3ccc(C(=O)N4CCN(C(c5ccc(OCc6ccccc6)cc5)c5ccc(OCc6ccccc6)cc5)CC4)cc3C2=O)C(=O)N1 (stereo not shown) [GT-06558, 5-(4-(bis(4-(benzyloxy)phenyl)methyl)piperazine-1-carbonyl)-2-(2,6-dioxopiperidin-3-yl) isoindoline-1,3-dione]",A (A represents 0% ≤ substrate protein remaining % ≤ 50%),B (B represents substrate protein remaining % > 50%),A (A represents 0% ≤ substrate protein remaining % ≤ 50%)
,"O=C1CCC(N2C(=O)c3ccc(C(=O)N4CCN(C(c5cc(F)cc(F)c5)c5cc(F)cc(F)c5)CC4)cc3C2=O)C(=O)N1 (stereo not shown) [GT-06598, 5-(4-(bis(3,5-difluorophenyl)methyl)piperazine-1-carbonyl)-2-(2,6-dioxopiperidin-3-yl) isoindoline-1,3-dione]",A (A represents 0% ≤ substrate protein remaining % ≤ 50%),B (B represents substrate protein remaining % > 50%),B (B represents substrate protein remaining % > 50%)
,"O=C1CCC(N2C(=O)c3ccc(CN4CCN(C(c5ccccc5)c5ccc(Br)cc5)CC4)cc3C2=O)C(=O)N1 (stereo not shown) [GT-06639, 5-((4-((4-bromophenyl) (phenyl)methyl)piperazin-1-yl)methyl)-2-(2,6-dioxopiperidin-3-yl) isoindoline-1,3-dione]",A (A represents 0% ≤ substrate protein remaining % ≤ 50%),A (A represents 0% ≤ substrate protein remaining % ≤ 50%),A (A represents 0% ≤ substrate protein remaining % ≤ 50%)

Compound,IC50 [1],substrate protein remaining % GSPT1 (GSPT1),substrate protein remaining % IKZF3 (IKZF3),substrate protein remaining % IKZF1 (IKZF1)
"O=C1CCC(N2Cc3cc(CN4C5CC4CN(C(c4ccccc4)c4ccccc4)C5)ccc3C2=O)C(=O)N1 (stereo not shown) [GT-03569, 3-(5-((3-benzhydryl-3,6-diazabicyclo[3.1.1]heptan-6-yl)methyl)-1-oxoisoindolin-2-yl)piperidine-2,6-dione]",500 to 1000 nM,A (A represents 0% ≤ substrate protein remaining % ≤ 50%),A (A represents 0% ≤ substrate protein remaining % ≤ 50%),B (B represents substrate protein remaining % > 50%)
"O=C1CCC(N2Cc3cc(CN4C5CC4CN(C(c4ccccc4)c4ccccc4)C5)cc(F)c3C2=O)C(=O)N1 (stereo not shown) [GT-03575, 3-(5-((3-benzhydryl-3,6-diazabicyclo[3.1.1]heptan-6-yl)methyl)-7-fluoro-1-oxoisoindolin-2-yl)piperidine-2,6-dione]",500 to 1000 nM,A (A represents 0% ≤ substrate protein remaining % ≤ 50%),B (B represents substrate protein remaining % > 50%),B (B represents substrate protein remaining % > 50%)
"O=C1CCC(N2Cc3cc(CN4CC5CCC(C4)N5C(c4ccccc4)c4ccccc4)ccc3C2=O)C(=O)N1 (stereo not shown) [GT-03722, 3-(5-((8-benzhydryl-3,8-diazabicyclo[3.2.1]octan-3-yl)methyl)-1-oxoisoindolin-2-yl)piperidine-2,6-dione]",< 500 nM,A (A represents 0% ≤ substrate protein remaining % ≤ 50%),A (A represents 0% ≤ substrate protein remaining % ≤ 50%),A (A represents 0% ≤ substrate protein remaining % ≤ 50%)
"O=C1CCC(N2Cc3c(ccc(CN4CC5CCC(C4)N5C(c4ccccc4)c4ccccc4)c3F)C2=O)C(=O)N1 (stereo not shown) [GT-03725, 3-(5-((8-benzhydryl-3,8-diazabicyclo[3.2.1]octan-3-yl)methyl)-4-fluoro-1-oxoisoindolin-2-yl)piperidine-2,6-dione]",500 to 1000 nM,A (A represents 0% ≤ substrate protein remaining % ≤ 50%),A (A represents 0% ≤ substrate protein remaining % ≤ 50%),A (A represents 0% ≤ substrate protein remaining % ≤ 50%)
